# US8263344B2, “Compounds regulating calreticulin, KDEL receptor and/or Erp-57 cell surface exposure and uses thereof to evaluate the efficiency of a cancer treatment” (Institut Gustave Roussy, priority 2006, dated 2012)
# Peptide text beside a SMILES is read from it. * marks the point of attachment. Cbz = O=C(OCc1ccccc1)*; CH2F = FC*
# How the values were obtained:
# [1] = tested on: CT26 cells; assay: Phagocytosis of tumour cells by dendritic cells (DC); assay type: cell-based, BALB/c mice
# Description: BM cells were flushed from the tibias and femurs of BALB/c mice with culture medium composed of RPMI 1640 medium (Invitrogen Life Technologies) supplemented with 10% heat-inactivated FBS (Invitrogen), sodium pyruvate, 50 μM 2-ME (Sigma), 10 mM HEPES (pH 7.4), and penicillin/streptomycin (Invitrogen). After one centrifugation, BM cells were resuspended in Tris-ammonium chloride for 2 min to lyse RBC. After one more centrifugation, BM cells (1×10^6 cells/ml) were cultured in medium supplemented with 100 ng/ml recombinant mouse FLT3 ligand (R&D systems) in 6-well plates (Costar Corning). After 7 days, the non-adherent and loosely adherent cells were harvested with Versene, washed and transferred in 12-well plates (1.5×10^6 cells/plate) for cocultures with tumour cells.
# In 12-well plates, […] adherent CT26 cells were labelled with Celltracker Green (Calbiochem) and then incubated with drugs. In some experiments viable CT26 were coated with 2 μg/10^6 cells of chicken anti-CRT antibody (ABR affinity bioreagents) or an isotype control for 30 min prior to washing and feeding to dendritic cells Cs. Alternatively CT26 cells were coated with 2 μg/10^6 cells of rCRT on ice for 30 min and washed twice prior to addition to dendritic cells. Cells were then harvested, washed three times with medium supplemented with FBS and cocultured with immature DC for 2 hours at a ratio of 1:1 and 1:5. At the end of the incubation, cells were harvested with versene, pooled with non-adherent cells present in the supernatant, washed and stained with CD11c-FITC antibody. Phagocytosis was assessed by FACS analysis of double positive cells. Phagocytic indexes refer to the ratio between values obtained at 4° C. and values obtained at 37° C. of co-incubation between DC and tumour cells.
# [2] = tested on: CT26 tumour cells; assay: Anti-tumour vaccination with treated (dying) CT26 cells and challenge with live tumour cells; assay type: in vivo, BALB/c mice; settings: for immunogenic apoptosis / immunogenic cell death (protection against tumour growth): dying CT26 cells injected into one flank, rechallenge with live tumour cells in opposite flank 8 days later
# [3] = tested on: CT26 cells; assay: Fluorescence detection of cell surface CRT; assay type: cell-based, murine
# Description: CT26 cells were cultured at 37° C. under 5% CO2 in RPMI 1640 medium supplemented with 10% FCS, penicillin, streptomycin, 1 mM pyruvate and 10 mM HEPES in the presence of doxorubicin (DX; 24 h, 25 μM), mitoxantrone (Mitox; 24 h, 1 μM, Sigma), idarubicin (24 h, 1 μM, Aventis, France), mitomycin C (30 μM, 48 h; Sanofi-Synthelabo, France), and/or zVAD-fmk (50 μM, 24 h; Bachem), tunicamycin (24 h, 65 μM), thapsigargin (24 h, 30 μM), brefeldin A (24 h, 50 μM, Sigma), etoposide (48 h, 25 μM, Tava classics), MG132 (48 h, 10 μM), ALLN (48 h, […]), betulinic acid (24 h, 10 μM), Hoechst 33343 (24 h, 0.2 μM), camptothecine (24 h, 15 μM), lactacystin (48 h, 60 μM), BAY 11-8072 (24 h, 30 μM), staurosporine (24 h, 1.5 μM), bafilomycin A1 (48 h, 300 nM), arsenic trioxide (24 h, 30 μM), C2-ceramide (C2-C; 24 h, 60 μM), calyculin A (48 h, 30 nM), or tautomycin (48 h, […], Sigma) and/or salubrinal (48 h, […], Calbiochem).
# CT26 cells (on a glass slide or in 12-well plates) were first washed with FACS buffer (1×PBS, 5% fetus bovine serum, and 0.1% sodium azide) and then incubated with rabbit anti-mouse CRT antibody (1:100, Stressgen) in FACS buffer at 4° C. for 30 min. Cells reacted with anti-rabbit IgG (H+L) Alexa fluor 488-conjugates (1:500) in FACS buffer at 4° C. for 30 min. After washing three times with FACS buffer, surface CRT was detected by cytofluorometric analysis on a FACS Vantage. In some experiments, cells were fixed with 4% paraformaldehyde, counterstained with Hoechst (2 μM; Sigma), followed by fluorescence microscopic assessment with a Leica IRE2 microscope equipped with a DC300F camera.
# [4] = tested on: HeLa cells; assay: Surface ERp57 detection (immunofluorescence, flow cytometry); assay type: cell-based, human; settings: MTX 1 μM, 2 h
# Description: HeLa cells were cultured on cover slips (in RPM1160 medium supplemented with 10% fetal calf serum, L-glutamine and antibiotics), in the absence (control) or in the presence of 1 μM mitoxantrone (MTX, Sigma) for 2 h. For the intracellular stainings, HeLa cells were fixed and permeabilised by means of Cytofix/Cytoperm kit from Becton Dickinson according to the manufacturer's instructions. For the surface stainings, HeLa cells were fixed with paraformadehyde (4% w/v) on ice for 5 min. […] Nuclei were labelled with DAPI mounting medium (Vectashield). Fluorescence microscopy was analyzed with a Leica IRE2 equipped with a DC300F camera. Size bars represent 10 μm.
# HeLa cells were treated with or without mitoxantrone (MTX, 1 μM) or tautomycin (Tau, 150 nM, Sigma) for 2 h. Cells were washed twice with PBS and fixed in PFA (4% w/v) for 5 min. HeLa cells were stained with an antibody against Erp57 (pAb from Abcam, ab10827) at 1:200 dilution or isotype control, in staining buffer (PBS, 1% FCS) for 30 min on ice, followed by washing. An anti-rabbit Alexa fluor 488 immunoglobulin conjugate (Molecular Probes-Invitrogen) diluted at 1:500 was added for an additional 30 min on ice before washing and analysed by flow cytometry (FACScan, Becton Dickinson). […] The CellQuest software was used to analyse the mean fluorescence intensity (MFI) and the percentage of ERp57 positive cells.
# FIG. 12: ERp57 exposure depends on the activation of a caspase. • (A) HeLa cells were treated with MTX (1 μM) for 2 h in the presence or absence of 50 μM zVAD.fmk. The MFI of surface Erp57 positive cells was analysed as described in FIG. 9. • (B) HCT116 parental cells stably transfected with either a vector encoding p35 (Stennicke et al., 2002; Date et al., 2003) or with a PCMV vector (Sigma) as control, were treated with MTX (1 μM) for 2 h. The MFI of surface Erp57 positive cells was analysed as described in FIG. 9. • (C) HCT116 cells were pre-incubated in the presence of 50 μM biotinylated VAD.fmk (Calbiochem) for 2 h. […]
# [5] = tested on: CT26 cells; assay: Biotinylation of cell surface proteins, 2D gel electrophoresis and mass spectrometry
# [6] = tested on: CT26 tumours; assay: Single intratumoural injection into established CT26 tumours, immunocompetent mice; assay type: in vivo, BALB/c mice
# [7] = tested on: CT26 tumours; assay: Single intratumoural injection into established CT26 tumours, athymic mice; parameters: species or system nu/nu Balb/c mice; settings: mouse, in vivo
compound,measurement,setting,value
5′-rCrCrGrCUrGrGrGUrCrGrArAUrCrRrArATT-3′ [specific siRNA],phagocytosis by DC of anthracyclin/mitoxantrone-treated tumour cells after blockade or knockdown of CRT,[1],suppressed the phagocytosis
"CCCCCCCCCCCCC/C=C/[C@@H](O)[C@H](CO)NC(C)=O [C2 ceramide, C2-ceramide]",immunogenic apoptosis / immunogenic cell death (protection against tumour growth),[2],failed to induce immunogenic apoptosis
CCCCCCCCCCCCC/C=C/[C@@H](O)[C@H](CO)NC(=O)CCCCCCCCCCCCCCC [C16-ceramide],ecto-CRT after C16-ceramide,"[3]; 30 μM, 2 h",rapidly induces ecto-CRT
CCOc1ccc(-c2nc3ccc(-c4nc5ccc(N6CCN(C)CC6)cc5[nH]4)cc3[nH]2)cc1 [Hoechst 33342],immunogenic apoptosis / immunogenic cell death (protection against tumour growth),[2],failed to induce immunogenic apoptosis
COC(=O)C[C@H](NC(=O)[C@H](C)NC(=O)[C@@H](NC(=O)OCc1ccccc1)C(C)C)C(=O)CF [Z-VAD-fmk] (Cbz-Val-Ala-Asp(OMe)-CH2F),effect on ERp57 exposure induced by MTX,[4],abolished
same,effect on immunogenicity of doxorubicin-elicited cell death,[2]; doxorubicin plus Z-VAD-fmk,reduces the immunogenicity
"C[C@H]1CCC/C=C/[C@@H]2C[C@H](O)C[C@H]2[C@H](O)/C=C/C(=O)O1 [brefeldin, brefeldin A]",immunogenic apoptosis / immunogenic cell death (protection against tumour growth),[2],failed to induce immunogenic apoptosis
COC[C@@H]([C@H](O)[C@H](O)C(=O)NCC[C@H](C)c1nc(/C=C/C[C@@H]2O[C@]3(C[C@@H](O)[C@@H]2C)O[C@H]([C@H](C[C@H](O)[C@H](C)[C@H](O)[C@H](C)/C=C(C)/C(C)=C/C=C/C(C)=C\C#N)OC)[C@H](OP(=O)(O)O)C3(C)C)co1)N(C)C [calyculin A],immunogenic cell death by PP1/GADD34 inhibition alone,"[2]; mouse, in vivo",not sufficient to induce immunogenic cell death
same,CRT exposure at the cell surface,[3],efficiently induced
CC[C@@]1(O)C(=O)OCc2c1cc1n(c2=O)Cc2cc3ccccc3nc2-1 [camptothecin],immunogenic apoptosis / immunogenic cell death (protection against tumour growth),[2],failed to induce immunogenic apoptosis
COc1cccc2c1C(=O)c1c(O)c3c(c(O)c1C2=O)C[C@@](O)(C(=O)CO)C[C@@H]3O[C@H]1C[C@H](N)[C@H](O)[C@H](C)O1 [doxorubicin],immunogenic apoptosis / immunogenic cell death (protection against tumour growth),[2],elicited immunogenic cell death
same,phagocytosis of treated tumour cells by DC,[1]; within a few hours after treatment,acquired the property to be phagocytosed by DC
same,"induction of surface CRT (factor), combined with Z-VAD-fmk","[5]; 4 h, doxorubicin plus Z-VAD-fmk",1.8
same,ERP57 surface exposure,"[5]; 4 h treatment, 2D electrophoreses",specifically induced
same,induction of surface CRT (factor),"[5]; short-term (4 h) treatment, biotinylated surface proteins, 2D electrophoreses",6
COc1cc([C@@H]2c3cc4c(cc3[C@@H](O[C@@H]3O[C@@H]5CO[C@@H](C)O[C@H]5[C@H](O)[C@H]3O)[C@H]3COC(=O)[C@H]23)OCO4)cc(OC)c1O [etoposide],"therapeutic effect of intratumoural injection, single agent, immunocompetent mice","[6]; mouse, in vivo",no major therapeutic effect
same,immunogenic apoptosis / immunogenic cell death (protection against tumour growth),[2],failed to induce immunogenic apoptosis
same,immunogenicity of sham-coated cells treated with etoposide,"[2]; mouse, in vivo",poorly immunogenic
same,CRT exposure at the cell surface,[3],fail to induce ecto-CRT
same,"therapeutic effect of intratumoural injection, single agent, nu/nu mice",[7],no major therapeutic effect
CC(=O)[C@]1(O)Cc2c(O)c3c(c(O)c2[C@@H](O[C@H]2C[C@H](N)[C@H](O)[C@H](C)O2)C1)C(=O)c1ccccc1C3=O [idarubicin],immunogenic apoptosis / immunogenic cell death (protection against tumour growth),[2],elicited immunogenic cell death
C/C1=C/C(=O)O[C@@H]2C[C@@H](CC[C@H](C)/C=C\C=C\CC1)O[C@@](O)([C@@H]1CSC(=O)N1)C2 [latrunculin A],effect on CRT exposure induced by anthracyclins and PP1/GADD34 inhibitors,[3]; pre-incubation for 1 h with the inhibitor,abolished
CO[C@@]12[C@H](COC(N)=O)C3=C(C(=O)C(C)=C(N)C3=O)N1C[C@@H]1N[C@@H]12 [mitomycin C],"therapeutic effect of intratumoural injection, single agent, immunocompetent mice","[6]; mouse, in vivo",no major therapeutic effect
same,CRT exposure at the cell surface,[3],fail to induce ecto-CRT
same,"therapeutic effect of intratumoural injection, single agent, nu/nu mice",[7],no major therapeutic effect
CO[C@H]([C@H](O)CC(=O)[C@@H](C)[C@@H](O)CC[C@@H](C)[C@@H]1O[C@]2(CC[C@@H](C)[C@H](CC[C@H](C)C(C)=O)O2)CC[C@@H]1C)[C@H](OC(=O)C[C@@H](O)C1=C(C)C(=O)OC1=O)C(C)C [tautomycin],"therapeutic effect of intratumoural injection, single agent, immunocompetent mice",[6]; established 14-day-old CT26 tumours,no major therapeutic effect
same,"therapeutic effect combined with a cell death inducer (etoposide or mitomycin C), immunocompetent mice",[6]; intratumoural,stable disease or complete tumour regression
same,surface exposure of ERp57,[4]; Tau 150 nM,stimulates the surface exposure
same,immunogenic cell death by PP1/GADD34 inhibition alone,"[2]; mouse, in vivo",not sufficient to induce immunogenic cell death
same,CRT exposure at the cell surface,[3],efficiently induced
same,"therapeutic effect of intratumoural injection, single agent, nu/nu mice",[7],no major therapeutic effect
C/C=C(/C)C(=O)O[C@H]1C(C)=C2[C@H]([C@@H]1OC(=O)CCCCCCC)[C@@](C)(OC(C)=O)C[C@H](OC(=O)CCC)[C@@]1(O)[C@H]2OC(=O)[C@@]1(C)O [thapsigargin],immunogenic apoptosis / immunogenic cell death (protection against tumour growth),[2],failed to induce immunogenic apoptosis
tunicamycin,immunogenic apoptosis / immunogenic cell death (protection against tumour growth),[2],failed to induce immunogenic apoptosis
